Where “and” joins values, the source holds several entries; their conditions need not be identical. Equal values may be shown once.
System: tumor cells
Assay: Tumor volume in nude mice injected subcutaneously with tumor cells, treated with honokiol diepoxide
Assay type: in vivo
Conditions: 40 mg/kg daily intraperitoneally
Description: Nude mice were injected subcutaneously with approximately one million tumor cells. Once tumors became visible, they were treated with 40 mg/kg daily of honokiol diepoxide. The compound was reconstituted in 100 microliters of ethanol and diluted with 900 microliters of 20% Intralipid, and 0.3 ml of this mixture was injected intraperitoneally daily. Tumors were measured with vernier calipers, and tumor volume was calculated using the formula (width^2×length)0.52, where width is the smallest dimension, 2 represents squared, and […].

Oc1ccc(-c2cc(CC3CO3)ccc2O)cc1CC1CO1 (stereo not shown) [Honokiol Epoxide, honokiol diepoxide]
Average (tumor volume) (group average, in mm³ (unit assumed)): 433.3632 | Tumor Volume (individual animal, volume = (width^2 x length) x 0.52, 40 mg/kg, in mm³ (unit assumed)): 385.2 and 914.8568 and 0 | W (tumor width) (individual animal, vernier calipers, 40 mg/kg): 8.59 and 11 and 0 | L (tumor length) (individual animal, vernier calipers, 40 mg/kg, in mm (unit assumed)): 10.04 and 14.54 and 0

Source: patent publication US8822531B2, “Honokiol analogs and their use in treating cancers” (priority 2007, dated 2014)
